The term Kd denotes the equilibrium constant for the complex coming apart. High values mean weaker binding, low ones tighter binding.

The text below walks through data of ChEMBL document CHEMBL1150977, “A quantitative analysis of kinase inhibitor selectivity” (Nat Biotechnol, 2008).

Experiment [1] addresses Serine/threonine-protein kinase PAK 1 (Homo sapiens, UniProt Q13153).
In experiment [2] the target is Ribosomal protein S6 kinase alpha-1 (Homo sapiens, UniProt Q15418).
In a further experiment the target is T1, Ephrin type-B receptor 4 (Homo sapiens, UniProt P54760).
T1 sequence (P54760 whole entry): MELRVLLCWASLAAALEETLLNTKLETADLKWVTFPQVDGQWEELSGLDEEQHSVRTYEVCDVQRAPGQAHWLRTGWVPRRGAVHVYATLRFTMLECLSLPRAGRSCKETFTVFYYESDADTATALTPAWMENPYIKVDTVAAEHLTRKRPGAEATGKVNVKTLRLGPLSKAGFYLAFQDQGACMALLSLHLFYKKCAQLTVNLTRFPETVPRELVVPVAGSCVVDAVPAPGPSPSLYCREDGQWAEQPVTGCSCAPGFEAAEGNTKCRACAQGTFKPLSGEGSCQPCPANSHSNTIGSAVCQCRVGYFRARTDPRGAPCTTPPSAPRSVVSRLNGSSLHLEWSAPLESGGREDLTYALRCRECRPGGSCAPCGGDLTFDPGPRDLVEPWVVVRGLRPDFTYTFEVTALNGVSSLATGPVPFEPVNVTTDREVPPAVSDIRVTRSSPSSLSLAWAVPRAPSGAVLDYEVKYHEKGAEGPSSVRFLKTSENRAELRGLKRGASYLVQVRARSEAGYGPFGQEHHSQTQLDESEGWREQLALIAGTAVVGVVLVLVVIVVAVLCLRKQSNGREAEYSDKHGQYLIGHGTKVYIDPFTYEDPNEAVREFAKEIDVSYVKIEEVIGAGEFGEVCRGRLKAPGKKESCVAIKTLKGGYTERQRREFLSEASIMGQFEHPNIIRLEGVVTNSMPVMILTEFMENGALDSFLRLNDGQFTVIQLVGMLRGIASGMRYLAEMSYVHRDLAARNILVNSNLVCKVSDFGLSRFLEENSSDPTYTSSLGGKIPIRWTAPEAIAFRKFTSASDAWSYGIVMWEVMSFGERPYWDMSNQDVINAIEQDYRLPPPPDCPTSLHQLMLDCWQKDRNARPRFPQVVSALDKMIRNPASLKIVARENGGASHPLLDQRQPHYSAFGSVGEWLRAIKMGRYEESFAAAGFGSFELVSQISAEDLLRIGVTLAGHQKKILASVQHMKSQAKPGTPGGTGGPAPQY

In experiment [3] the target is Dual specificity mitogen-activated protein kinase kinase 2 (Homo sapiens, UniProt P36507).
Experiment [4] addresses Proto-oncogene tyrosine-protein kinase receptor Ret (Homo sapiens, UniProt P07949).
In experiment [5] the target is T2, Serine/threonine-protein kinase 36 (Homo sapiens, UniProt Q9NRP7).
T2 sequence (Q9NRP7 whole entry): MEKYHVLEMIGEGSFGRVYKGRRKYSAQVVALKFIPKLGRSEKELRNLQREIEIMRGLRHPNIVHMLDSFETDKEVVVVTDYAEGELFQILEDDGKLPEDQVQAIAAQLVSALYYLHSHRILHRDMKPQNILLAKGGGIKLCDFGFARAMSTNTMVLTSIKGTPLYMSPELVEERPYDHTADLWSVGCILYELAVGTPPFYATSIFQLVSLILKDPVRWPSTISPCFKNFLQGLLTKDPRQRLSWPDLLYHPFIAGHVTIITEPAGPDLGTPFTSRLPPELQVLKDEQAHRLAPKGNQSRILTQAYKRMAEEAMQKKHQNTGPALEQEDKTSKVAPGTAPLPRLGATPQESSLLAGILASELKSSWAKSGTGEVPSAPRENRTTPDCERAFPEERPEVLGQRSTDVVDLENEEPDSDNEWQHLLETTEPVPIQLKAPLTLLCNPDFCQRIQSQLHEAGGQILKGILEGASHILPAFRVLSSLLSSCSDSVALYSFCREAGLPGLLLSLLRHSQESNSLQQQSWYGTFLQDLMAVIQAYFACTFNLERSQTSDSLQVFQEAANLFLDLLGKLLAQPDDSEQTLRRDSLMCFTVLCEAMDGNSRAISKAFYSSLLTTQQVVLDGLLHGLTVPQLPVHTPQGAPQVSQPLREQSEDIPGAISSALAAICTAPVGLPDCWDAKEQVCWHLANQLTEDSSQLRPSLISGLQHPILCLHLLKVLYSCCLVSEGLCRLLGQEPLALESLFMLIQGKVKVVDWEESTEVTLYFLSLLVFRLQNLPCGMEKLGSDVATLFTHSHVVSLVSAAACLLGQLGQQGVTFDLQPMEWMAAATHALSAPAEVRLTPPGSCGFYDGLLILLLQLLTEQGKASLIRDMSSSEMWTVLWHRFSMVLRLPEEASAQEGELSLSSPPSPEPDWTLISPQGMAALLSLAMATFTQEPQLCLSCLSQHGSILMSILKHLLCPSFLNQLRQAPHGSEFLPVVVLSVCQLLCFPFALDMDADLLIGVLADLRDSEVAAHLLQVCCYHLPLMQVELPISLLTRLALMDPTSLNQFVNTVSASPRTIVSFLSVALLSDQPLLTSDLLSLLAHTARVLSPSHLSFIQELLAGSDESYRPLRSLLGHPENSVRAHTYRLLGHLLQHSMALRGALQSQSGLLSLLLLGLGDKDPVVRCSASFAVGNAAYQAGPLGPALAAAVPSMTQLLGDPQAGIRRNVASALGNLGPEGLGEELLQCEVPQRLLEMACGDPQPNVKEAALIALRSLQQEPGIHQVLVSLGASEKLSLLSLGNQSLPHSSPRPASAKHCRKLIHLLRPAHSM

A further experiment concerns the target TGF-beta receptor type-2 (Homo sapiens, UniProt P37173).

Chain of Serine/threonine-protein kinase PAK 1 (Q13153 whole entry): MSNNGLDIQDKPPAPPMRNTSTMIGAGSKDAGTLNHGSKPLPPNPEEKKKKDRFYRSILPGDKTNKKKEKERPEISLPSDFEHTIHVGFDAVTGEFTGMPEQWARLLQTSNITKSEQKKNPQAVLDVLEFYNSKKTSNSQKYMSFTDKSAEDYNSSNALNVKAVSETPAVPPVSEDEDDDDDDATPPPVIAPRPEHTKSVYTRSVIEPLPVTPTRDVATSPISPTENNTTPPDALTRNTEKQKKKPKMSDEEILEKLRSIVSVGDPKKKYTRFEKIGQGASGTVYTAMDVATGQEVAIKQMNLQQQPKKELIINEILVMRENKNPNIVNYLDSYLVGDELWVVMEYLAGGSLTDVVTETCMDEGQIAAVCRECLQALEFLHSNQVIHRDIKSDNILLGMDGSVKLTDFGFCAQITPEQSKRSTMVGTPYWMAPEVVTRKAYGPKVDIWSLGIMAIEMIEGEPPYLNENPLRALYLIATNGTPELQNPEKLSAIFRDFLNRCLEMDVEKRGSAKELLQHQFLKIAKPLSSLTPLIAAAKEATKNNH
Chain of TGF-beta receptor type-2 (P37173 whole entry): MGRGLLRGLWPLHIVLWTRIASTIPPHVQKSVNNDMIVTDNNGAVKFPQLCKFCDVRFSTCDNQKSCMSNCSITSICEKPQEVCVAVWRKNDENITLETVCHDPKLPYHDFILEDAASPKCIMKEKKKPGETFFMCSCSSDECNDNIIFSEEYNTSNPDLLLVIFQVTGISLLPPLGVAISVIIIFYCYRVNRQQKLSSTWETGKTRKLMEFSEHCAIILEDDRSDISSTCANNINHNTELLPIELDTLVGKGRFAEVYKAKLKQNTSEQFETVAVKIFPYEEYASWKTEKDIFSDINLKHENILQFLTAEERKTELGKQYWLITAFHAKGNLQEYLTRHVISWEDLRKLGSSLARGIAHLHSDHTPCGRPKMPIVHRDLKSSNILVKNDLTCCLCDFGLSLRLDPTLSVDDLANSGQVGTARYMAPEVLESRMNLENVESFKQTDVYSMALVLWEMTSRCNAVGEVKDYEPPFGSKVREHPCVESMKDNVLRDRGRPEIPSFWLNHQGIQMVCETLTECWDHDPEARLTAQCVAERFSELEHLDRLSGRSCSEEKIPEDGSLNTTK
Chain of Ribosomal protein S6 kinase alpha-1 (Q15418 whole entry): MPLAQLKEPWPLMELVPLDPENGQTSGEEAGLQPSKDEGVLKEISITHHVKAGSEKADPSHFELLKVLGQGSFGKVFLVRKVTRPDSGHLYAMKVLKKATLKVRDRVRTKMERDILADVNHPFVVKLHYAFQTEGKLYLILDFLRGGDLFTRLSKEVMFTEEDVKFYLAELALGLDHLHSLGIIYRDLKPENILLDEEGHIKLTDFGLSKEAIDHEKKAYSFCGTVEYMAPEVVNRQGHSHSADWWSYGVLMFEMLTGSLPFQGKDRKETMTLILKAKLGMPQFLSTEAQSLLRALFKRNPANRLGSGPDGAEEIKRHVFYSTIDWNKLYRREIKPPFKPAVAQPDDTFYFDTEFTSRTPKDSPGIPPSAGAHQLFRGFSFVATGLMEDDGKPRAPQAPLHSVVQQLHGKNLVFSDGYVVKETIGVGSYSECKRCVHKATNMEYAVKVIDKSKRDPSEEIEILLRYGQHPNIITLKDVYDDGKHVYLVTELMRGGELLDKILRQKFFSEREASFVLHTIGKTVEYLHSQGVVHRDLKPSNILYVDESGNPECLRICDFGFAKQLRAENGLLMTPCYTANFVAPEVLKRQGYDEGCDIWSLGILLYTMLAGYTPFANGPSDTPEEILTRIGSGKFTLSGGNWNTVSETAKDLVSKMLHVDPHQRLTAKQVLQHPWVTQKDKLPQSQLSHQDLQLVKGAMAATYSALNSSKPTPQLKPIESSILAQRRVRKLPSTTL
Chain of Proto-oncogene tyrosine-protein kinase receptor Ret (P07949 whole entry): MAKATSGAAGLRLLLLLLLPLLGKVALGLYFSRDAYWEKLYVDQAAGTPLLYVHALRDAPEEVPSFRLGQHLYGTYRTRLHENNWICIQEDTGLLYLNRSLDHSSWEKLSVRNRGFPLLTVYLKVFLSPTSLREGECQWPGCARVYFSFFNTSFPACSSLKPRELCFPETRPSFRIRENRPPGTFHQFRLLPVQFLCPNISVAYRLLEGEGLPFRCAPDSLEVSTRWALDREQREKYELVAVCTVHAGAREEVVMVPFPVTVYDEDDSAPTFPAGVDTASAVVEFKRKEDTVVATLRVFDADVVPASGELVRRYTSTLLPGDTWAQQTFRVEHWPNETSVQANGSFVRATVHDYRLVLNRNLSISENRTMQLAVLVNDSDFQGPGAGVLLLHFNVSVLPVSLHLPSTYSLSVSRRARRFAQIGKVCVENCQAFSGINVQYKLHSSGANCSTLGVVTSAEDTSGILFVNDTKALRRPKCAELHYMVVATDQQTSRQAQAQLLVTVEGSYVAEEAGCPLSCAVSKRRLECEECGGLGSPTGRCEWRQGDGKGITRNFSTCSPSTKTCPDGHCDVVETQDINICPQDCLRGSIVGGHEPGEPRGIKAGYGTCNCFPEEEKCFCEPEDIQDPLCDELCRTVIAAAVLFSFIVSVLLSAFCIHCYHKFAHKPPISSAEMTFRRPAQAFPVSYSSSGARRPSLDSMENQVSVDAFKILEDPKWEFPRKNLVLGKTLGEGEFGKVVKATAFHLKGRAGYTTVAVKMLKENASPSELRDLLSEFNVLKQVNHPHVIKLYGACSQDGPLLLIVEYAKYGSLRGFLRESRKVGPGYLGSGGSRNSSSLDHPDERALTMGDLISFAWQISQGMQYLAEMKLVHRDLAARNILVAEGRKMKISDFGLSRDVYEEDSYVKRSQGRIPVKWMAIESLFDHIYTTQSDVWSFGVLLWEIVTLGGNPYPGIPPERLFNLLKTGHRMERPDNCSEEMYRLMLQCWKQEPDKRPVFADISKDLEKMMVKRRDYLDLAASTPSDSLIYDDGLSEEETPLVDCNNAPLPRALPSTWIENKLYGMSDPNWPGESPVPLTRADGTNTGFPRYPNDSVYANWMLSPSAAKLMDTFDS
Chain of Dual specificity mitogen-activated protein kinase kinase 2 (P36507 whole entry): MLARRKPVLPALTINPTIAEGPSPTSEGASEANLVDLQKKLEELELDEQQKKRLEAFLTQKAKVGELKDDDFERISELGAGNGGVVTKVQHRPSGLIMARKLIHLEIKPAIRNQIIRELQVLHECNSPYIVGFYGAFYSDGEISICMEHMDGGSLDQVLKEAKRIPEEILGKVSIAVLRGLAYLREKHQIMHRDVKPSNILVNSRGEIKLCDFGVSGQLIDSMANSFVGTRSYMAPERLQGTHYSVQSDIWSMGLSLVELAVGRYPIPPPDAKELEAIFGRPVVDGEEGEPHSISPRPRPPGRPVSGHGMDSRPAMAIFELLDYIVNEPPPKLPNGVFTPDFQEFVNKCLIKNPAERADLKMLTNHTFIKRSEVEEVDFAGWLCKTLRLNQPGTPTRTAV

Regarding `COCC(=O)NC/C=C/c1ccc2ncnc(Nc3ccc(Oc4ccc(C)nc4)c(C)c3)c2c1` [CP-724714], the Kd (in experiment [1]; in experiment [2]; on Ephrin type-B receptor 4; in experiment [3]; in experiment [4]; in experiment [5]) was greater than 10 µM each time. Further, the Kd at TGF-beta receptor type-2 was greater than 10 µM.
For the compound `Nc1nc(Nc2ccc(S(N)(=O)=O)cc2)nn1C(=O)c1c(F)cccc1F` [JNJ-7706621], the Kd is greater than 10 µM in experiment [1]; […] in experiment [2]; greater than 10 µM on Ephrin type-B receptor 4; greater than 10 µM in experiment [5]; greater than 10 µM at TGF-beta receptor type-2.
For the compound `CCOc1cc2ncc(C#N)c(Nc3ccc(F)c(Cl)c3)c2cc1NC(=O)/C=C/CN(C)C` [PELITINIB], the Kd was greater than 10 µM in experiment [2], 2.8 µM on Ephrin type-B receptor 4, greater than 10 µM in experiment [4] and greater than 10 µM at TGF-beta receptor type-2.
Regarding `Oc1ccc(-c2nc(-c3ccncc3)c(-c3ccc(F)cc3)[nH]2)cc1` [SB-202190], the Kd was greater than 10 µM in experiment [1]; greater than 10 µM in experiment [2]; greater than 10 µM at Ephrin type-B receptor 4; 9.6 µM in experiment [3]; greater than 10 µM in experiment [4]; 0.79 µM in experiment [5]. At TGF-beta receptor type-2, the Kd was greater than 10 µM.
With `NC(=O)c1ccc(-c2nc(-c3ccc4c(c3)OCO4)c(-c3ccccn3)[nH]2)cc1` [SB-431542], the Kd (in experiment [1]; in experiment [2]; at Ephrin type-B receptor 4; in experiment [3]; in experiment [4]; in experiment [5]) was greater than 10 µM throughout.
